In PubChem BioAssay AID1845209 (Molecular Pharmacology Branch, DTP, NCI, 2023):
Where “and” joins values, the source holds several entries; their conditions need not be identical. Equal entries are not always repeated. Calls of active or inactive are those of the source. The calls were made as follows: active = viability on the fitted dose curve at most 10% of control; inactive = the rest.

Test system: NCI-H211 tumor spheroids, viability percent test/control
Test: Anticancer human tumor NCI-H211 cell line growth inhibition;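 as to IC50: spheroids exposed to agents for seven days before readout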;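 as to viability, T/C: spheroids exposed to agents for seven days before readout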
Details: spheroids with HUVEC and MSC; for viability, T/C: stronger effect = lower value
Summary of the method: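 Complex spheroids of malignant cells with endothelial cells and mesenchymal stem cells; agents alone or combined, from near clinical Cmax (or 10 microM if unknown) down in half-log steps, 0.25% DMSO final.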

[1] = curve of first compound, second compound 30 pM
[2] = curve of first compound, second compound 94.9 pM
[3] = curve of first compound, second compound 0.0003 µM
[4] = curve of first compound, second compound 0.000949 µM
[5] = curve of first compound, second compound 0.003 µM

Which results are given for CC(C)n1c(=O)n(C)c2cnc3cc(F)c(-c4ccc(OCCCN5CCCCC5)nc4)cc3c21 + COc1cc2c(cc1O)CCNC21CSC2c3c(OC(C)=O)c(C)c4c(c3C(COC1=O)N1C(O)C3Cc5cc(C)c(OC)c(O)c5C(C21)N3C)OCO4?
IC50 [1]: < 0.0316 µM; IC50 [2]: < 0.0316 µM; IC50 [3]: < 0.0316 µM; IC50 [4]: < 0.0316 µM; IC50 [5]: < 0.0316 µM; viability, T/C (second compound 30 pM, first compound 0.0316 µM): 27%; viability, T/C (second compound 30 pM, first compound 0.1 µM): 15.3%; viability, T/C (second compound 30 pM, first compound 0.316 µM): 15.5%; viability, T/C (second compound 30 pM, first compound 1 µM): 12.7%; viability, T/C (second compound 30 pM, first compound 3.16 µM): 9.25%; viability, T/C (second compound 30 pM, first compound 10 µM): 0.77%; viability, T/C (second compound 94.9 pM, first compound 0.0316 µM): 0.99%; viability, T/C (second compound 94.9 pM, first compound 0.1 µM): 0.88%; viability, T/C (second compound 94.9 pM, first compound 0.316 µM): 1.06%; viability, T/C (second compound 94.9 pM, first compound 1 µM): 0.96%; viability, T/C (second compound 94.9 pM, first compound 3.16 µM): 0.8%; viability, T/C (second compound 94.9 pM, first compound 10 µM): 0.42%; viability, T/C (second compound 0.0003 µM, first compound 0.0316 µM): 0.68%; viability, T/C (second compound 0.0003 µM, first compound 0.1 µM): 0.74%; viability, T/C (second compound 0.0003 µM, first compound 0.316 µM): 0.77%; viability, T/C (second compound 0.0003 µM, first compound 1 µM): 1.03%; viability, T/C (second compound 0.0003 µM, first compound 3.16 µM): 0.82%; viability, T/C (second compound 0.0003 µM, first compound 10 µM): 0.31%; viability, T/C (second compound 0.000949 µM, first compound 0.0316 µM): 0.69%; viability, T/C (second compound 0.000949 µM, first compound 0.1 µM): 0.69%; viability, T/C (second compound 0.000949 µM, first compound 0.316 µM): 0.71%; viability, T/C (second compound 0.000949 µM, first compound 1 µM): 0.72%; viability, T/C (second compound 0.000949 µM, first compound 3.16 µM): 0.7%; viability, T/C (second compound 0.000949 µM, first compound 10 µM): 0.5%; viability, T/C (second compound 0.003 µM, first compound 0.0316 µM): 0.12%; viability, T/C (second compound 0.003 µM, first compound 0.1 µM): 0.17%; viability, T/C (second compound 0.003 µM, first compound 0.316 µM): 0.11%; viability, T/C (second compound 0.003 µM, first compound 1 µM): 0.1%; viability, T/C (second compound 0.003 µM, first compound 3.16 µM): 0.12%; viability, T/C (second compound 0.003 µM, first compound 10 µM): 0.16%

Cn1ncnc1[C@H]1c2n[nH]c(=O)c3cc(F)cc(c23)N[C@@H]1c1ccc(F)cc1 + COc1cc2c(cc1O)CCNC21CSC2c3c(OC(C)=O)c(C)c4c(c3C(COC1=O)N1C(O)C3Cc5cc(C)c(OC)c(O)c5C(C21)N3C)OCO4 was tested. Which IC50 [1] did it give?
The IC50 was < 0.00949 µM.

And the IC50 [2]?
The IC50 was < 0.00949 µM.

What about the IC50 [3] of the same compound?
The IC50 was < 0.00949 µM.

What about the IC50 [4] of the same compound?
Its IC50 is < 0.00949 µM.

What about the IC50 [5] of the same compound?
Its IC50 is < 0.00949 µM.

What about the viability, T/C (second compound 30 pM, first compound 0.00949 µM) of the same compound?
Its viability, T/C is 0.83%.

And the viability, T/C (second compound 30 pM, first compound 0.03 µM)?
The viability, T/C was 0.69%.

And the viability, T/C (second compound 30 pM, first compound 0.0949 µM)?
The viability, T/C was 0.93%.

What about the viability, T/C (second compound 30 pM, first compound 0.3 µM) of the same compound?
Its viability, T/C is 0.66%.

And the viability, T/C (second compound 30 pM, first compound 0.949 µM)?
Its viability, T/C is 0.63%.

What about the viability, T/C (second compound 30 pM, first compound 3 µM) of the same compound?
Its viability, T/C is 1%.

And the viability, T/C (second compound 94.9 pM, first compound 0.00949 µM)?
Its viability, T/C is 0.99%.

What about the viability, T/C (second compound 94.9 pM, first compound 0.03 µM) of the same compound?
Its viability, T/C is 0.82%.

And the viability, T/C (second compound 94.9 pM, first compound 0.0949 µM)?
The viability, T/C was 0.72%.

What about the viability, T/C (second compound 94.9 pM, first compound 0.3 µM) of the same compound?
The viability, T/C was 0.82%.

What about the viability, T/C (second compound 94.9 pM, first compound 0.949 µM) of the same compound?
The viability, T/C was 0.82%.

And the viability, T/C (second compound 94.9 pM, first compound 3 µM)?
Its viability, T/C is 0.85%.

What about the viability, T/C (second compound 0.0003 µM, first compound 0.00949 µM) of the same compound?
The viability, T/C was 0.98%.

And the viability, T/C (second compound 0.0003 µM, first compound 0.03 µM)?
The viability, T/C was 0.93%.

What about the viability, T/C (second compound 0.0003 µM, first compound 0.0949 µM) of the same compound?
Its viability, T/C is 0.92%.

And the viability, T/C (second compound 0.0003 µM, first compound 0.3 µM)?
Its viability, T/C is 0.85%.

What about the viability, T/C (second compound 0.0003 µM, first compound 0.949 µM) of the same compound?
Its viability, T/C is 0.86%.

And the viability, T/C (second compound 0.0003 µM, first compound 3 µM)?
Its viability, T/C is 1.35%.

And the viability, T/C (second compound 0.000949 µM, first compound 0.00949 µM)?
The viability, T/C was 1%.

What about the viability, T/C (second compound 0.000949 µM, first compound 0.03 µM) of the same compound?
Its viability, T/C is 0.89%.

And the viability, T/C (second compound 0.000949 µM, first compound 0.0949 µM)?
Its viability, T/C is 0.76%.

What about the viability, T/C (second compound 0.000949 µM, first compound 0.3 µM) of the same compound?
The viability, T/C was 1.25%.

What about the viability, T/C (second compound 0.000949 µM, first compound 0.949 µM) of the same compound?
Its viability, T/C is 0.97%.

And the viability, T/C (second compound 0.000949 µM, first compound 3 µM)?
Its viability, T/C is 0.5%.

What about the viability, T/C (second compound 0.003 µM, first compound 0.00949 µM) of the same compound?
Its viability, T/C is 0.48%.

And the viability, T/C (second compound 0.003 µM, first compound 0.03 µM)?
The viability, T/C was 0.12%.

And the viability, T/C (second compound 0.003 µM, first compound 0.0949 µM)?
Its viability, T/C is 0.1%.

What about the viability, T/C (second compound 0.003 µM, first compound 0.3 µM) of the same compound?
The viability, T/C was 0.1%.

What about the viability, T/C (second compound 0.003 µM, first compound 0.949 µM) of the same compound?
The viability, T/C was 0.11%.

What about the viability, T/C (second compound 0.003 µM, first compound 3 µM) of the same compound?
Its viability, T/C is 0.4%.

What does the source list for COc1ccc([C@@H](O)c2cc(-c3ncnc4cc(N5CCOCC5)ccc34)c(F)cc2Cl)nn1?
viability, T/C (compound 0.0316 µM): 102% and 96.3% and 105%; viability, T/C (compound 0.1 µM): 100% and 102% and 109%; viability, T/C (compound 0.316 µM): 95.9% and 93.1% and 104%; viability, T/C (compound 1 µM): 90.3% and 101%; outcome (compound 1 µM): inactive; viability, T/C (compound 3.16 µM): 74.8% and 85% and 96%; viability, T/C (compound 10 µM): 11.4% and 40.7% and 40.8%; IC50 (curve of compound): 4.87 µM and 7.85 µM and 8.3 µM
